Experimental data taken from ChEMBL document CHEMBL4368907 (J Med Chem, 2019).
Activity calls are given as the source filed them. The calls are words filed in the database; no cut-off is given here. Numbered stars: 1 amine (or outer) side, 2 acyl side, 3 side chain; on linkers, the order of the positions; unused ones are H or OH. Square brackets hold non-standard residues; d marks the D form. Peptide text beside a SMILES is read from it. * marks the point of attachment. Phe(4-CH2SO3H) = N[C@@H](Cc1ccc(CS(=O)(=O)O)cc1)C(=O)O; sY = N[C@@H](Cc1ccc(OS(=O)(=O)O)cc1)C(=O)O; C18 diacid = O=C(O)CCCCCCCCCCCCCCCCC(=O)*; γGlu = O=C(O)[C@H](CCC(=O)[*:2])N[*:1]; NMeF = CN[C@@H](Cc1ccccc1)C(=O)O; NMeD = CN[C@@H](CC(=O)O)C(=O)O; dNMeD = CN[C@H](CC(=O)O)C(=O)O; Nle = CCCC[C@H](N)C(=O)O; AEEA = NCCOCCOCC(=O)O

Assays:
[1] = molecular target: T1, Cholecystokinin receptor type A (Homo sapiens, UniProt P32238); experiment: (§1) Displacement of [125I]-CCK-8 from human CCK1R expressed in human 1321N1 cell membranes after 2 hrs by SPA assay
T1 sequence (P32238 whole entry): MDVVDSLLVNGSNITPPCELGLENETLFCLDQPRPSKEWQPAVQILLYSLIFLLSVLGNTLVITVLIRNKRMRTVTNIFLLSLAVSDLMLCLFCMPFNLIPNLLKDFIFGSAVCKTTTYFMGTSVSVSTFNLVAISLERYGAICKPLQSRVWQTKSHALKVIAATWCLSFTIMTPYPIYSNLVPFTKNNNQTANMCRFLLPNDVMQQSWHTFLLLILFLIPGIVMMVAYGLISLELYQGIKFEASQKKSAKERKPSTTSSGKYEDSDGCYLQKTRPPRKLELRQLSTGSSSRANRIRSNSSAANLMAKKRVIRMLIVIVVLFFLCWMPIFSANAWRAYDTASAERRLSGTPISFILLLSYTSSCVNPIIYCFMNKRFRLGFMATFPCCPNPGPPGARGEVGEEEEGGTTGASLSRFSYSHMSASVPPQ

[2] = molecular target: T2, Gastrin/cholecystokinin type B receptor (Homo sapiens, UniProt P32239); experiment: (§2) Displacement of [125I]-CCK-8 from human CCK2R expressed in human 1321N1 cell membranes after 2 hrs by SPA assay
T2 sequence (P32239 whole entry): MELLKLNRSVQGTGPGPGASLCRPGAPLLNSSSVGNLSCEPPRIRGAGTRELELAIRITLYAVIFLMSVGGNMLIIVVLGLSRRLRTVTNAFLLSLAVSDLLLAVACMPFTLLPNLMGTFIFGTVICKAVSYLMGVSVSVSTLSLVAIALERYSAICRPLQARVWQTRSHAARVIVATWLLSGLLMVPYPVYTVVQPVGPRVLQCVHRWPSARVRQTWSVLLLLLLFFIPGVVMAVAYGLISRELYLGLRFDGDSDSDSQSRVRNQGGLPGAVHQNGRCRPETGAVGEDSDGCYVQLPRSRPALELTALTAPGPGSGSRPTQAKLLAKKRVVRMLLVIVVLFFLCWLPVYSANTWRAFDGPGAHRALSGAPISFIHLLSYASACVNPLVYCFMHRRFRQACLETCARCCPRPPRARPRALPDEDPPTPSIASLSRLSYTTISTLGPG

[3] = molecular target: T1, Cholecystokinin receptor type A; experiment: (§3) Agonist activity at human CCK1R expressed in human 1321N1 cells assessed as IP1 accumulation after 1 hr by HTRF assay; type: functional, cell-based
[4] = molecular target: T2, Gastrin/cholecystokinin type B receptor; experiment: (§4) Agonist activity at human CCK2R expressed in human 1321N1 cells assessed as IP1 accumulation after 1 hr by HTRF assay; type: functional, cell-based
Sus scrofa [5] = experiment: Anti-obesity activity in lean Landrace Yorkshire Duroc pig assessed as food intake at 30 nmol/kg, sc measured up to 24 hrs post dose (reference value: 1.8 to 2.1 kg); type: functional
Sus scrofa [6] = experiment: Anti-obesity activity in lean Landrace Yorkshire Duroc pig assessed as food intake at 30 nmol/kg, sc measured at 24 to 48 hrs post dose (reference value: 1.8 to 2.1 kg); type: functional
Sus scrofa [7] = experiment: Anti-obesity activity in lean Landrace Yorkshire Duroc pig assessed as food intake at 30 nmol/kg, sc measured at 48 to 72 hrs post dose (reference value: 1.8 to 2.1 kg); type: functional
Sus scrofa [8] = experiment: Anti-obesity activity in lean Landrace Yorkshire Duroc pig assessed as food intake at 30 nmol/kg, sc measured at 72 to 96 hrs post dose (reference value: 1.8 to 2.1 kg); type: functional
[9] = Plasma concentration in lean Landrace Yorkshire Duroc pig at 30 nmol/kg, sc measured after 96 hrs post dose; type: ADME, organism-based, Sus scrofa
[10] = Toxicity in lean Landrace Yorkshire Duroc pig at 30 nmol/kg, sc measured up to 96 hrs post dose; type: organism-based, Sus scrofa; details: in vivo
[11] = molecular target: T3, Cholecystokinin receptor type A (Homo sapiens) (UniProt P32238); experiment: as §1
T3 sequence (whole entry): T1 sequence (P32238 whole entry)

[12] = molecular target: T4, Gastrin/cholecystokinin type B receptor (Homo sapiens) (UniProt P32239); experiment: as §2
T4 sequence (whole entry): T2 sequence (P32239 whole entry)

[13] = molecular target: T3, Cholecystokinin receptor type A (Homo sapiens); experiment: as §3; type: functional, cell-based
[14] = molecular target: T4, Gastrin/cholecystokinin type B receptor (Homo sapiens); experiment: as §4; type: functional, cell-based
[15] = Drug level in Ellegaard Gottingen minipig plasma treated with C18d-gammaGlu-(OEG)2-Asp-Phe(4sm)-Nle-Gly-Trp-Nle-DMeAspMePhe-NH2 at 5 nmol/kg, iv administered as single dose by LC-MS/MS analysis; type: ADME, organism-based, Sus scrofa; details: pig, in vivo

| Compound | Activity (Sus scrofa [5]) [kg] | Activity (Sus scrofa [6]) [kg] | Activity (Sus scrofa [7]) [kg] | Activity (Sus scrofa [8]) [kg] | pIC50 [11] | pIC50 [12] | pEC50 [13] | pEC50 [14] | other results |
| --- | --- | --- | --- | --- | --- | --- | --- | --- | --- |
| CCCC[C@H](NC(=O)[C@H](Cc1ccc(CS(=O)(=O)O)cc1)NC(=O)[C@H](CC(=O)O)NC(=O)COCCOCCNC(=O)COCCOCCNC(=O)CC[C@H](NC(=O)CCCCCCCCCCCCCCCCC(=O)O)C(=O)O)C(=O)NCC(=O)N[C@@H](Cc1c[nH]c2ccccc12)C(=O)N[C@@H](CCCC)C(=O)N(C)[C@@H](CC(=O)O)C(=O)N(C)[C@@H](Cc1ccccc1)C(N)=O ({C18 diacid-γGlu-AEEA-AEEA}-D[Phe(4-CH2SO3H)][Nle]GW[Nle][NMeD][NMeF]-NH2) | 1.9 | 2 | 2.3 | 2.2 | – | – | – | – | IC50 [1]: 0.316 nM; IC50 [2]: 8710 nM; EC50 [3]: 0.107 nM; EC50 [4]: > 1000 nM; concentration at 96 h [9]: 93.9 nM; Activity [10]: Non-Toxic |
| CCCC[C@H](NC(=O)[C@H](Cc1c[nH]c2ccccc12)NC(=O)CNC(=O)[C@H](CC(C)C)NC(=O)[C@H](Cc1ccc(O)cc1)NC(=O)[C@H](CC(=O)O)NC(=O)COCCOCCNC(=O)COCCOCCNC(=O)CC[C@H](NC(=O)CCCCCCCCCCCCCCCCC(=O)O)C(=O)O)C(=O)N(C)[C@@H](CC(=O)O)C(=O)N(C)[C@@H](Cc1ccccc1)C(N)=O | 2.3 | 2.2 | 2.6 | 2.3 | – | – | – | – | – |
| CCCC[C@H](NC(=O)[C@H](Cc1ccc(OS(=O)(=O)O)cc1)NC(=O)[C@H](CC(=O)O)NC(=O)COCCOCCNC(=O)COCCOCCNC(=O)CC[C@H](NC(=O)CCCCCCCCCCCCCCCCC(=O)O)C(=O)O)C(=O)NCC(=O)N[C@@H](Cc1c[nH]c2ccccc12)C(=O)N[C@@H](CCCCN)C(=O)N[C@@H](CC(=O)O)C(=O)N[C@@H](Cc1ccccc1)C(N)=O ({C18 diacid-γGlu-AEEA-AEEA}-D[sY][Nle]GWKDF-NH2) | – | – | – | – | inactive | inactive | inactive | inactive | – |
| CCCC[C@H](NC(=O)[C@H](Cc1ccc(CS(=O)(=O)O)cc1)NC(=O)[C@H](CC(=O)O)NC(=O)COCCOCCNC(=O)COCCOCCNC(=O)CC[C@H](NC(=O)CCCCCCCCCCCCCCCCC(=O)O)C(=O)O)C(=O)NCC(=O)O ({C18 diacid-γGlu-AEEA-AEEA}-D[Phe(4-CH2SO3H)][Nle]G-OH) | – | – | – | – | – | – | – | – | Drug uptake [15]: Active |
| CCCC[C@H](NC(=O)[C@H](Cc1ccc(OS(=O)(=O)O)cc1)NC(=O)[C@H](CC(=O)O)NC(=O)COCCOCCNC(=O)COCCOCCNC(=O)CC[C@H](NC(=O)CCCCCCCCCCCCCCCCC(=O)O)C(=O)O)C(=O)NCC(=O)N[C@@H](Cc1c[nH]c2ccccc12)C(=O)N[C@@H](CCC(=O)O)C(=O)N[C@@H](CC(=O)O)C(=O)N[C@@H](Cc1ccccc1)C(N)=O ({C18 diacid-γGlu-AEEA-AEEA}-D[sY][Nle]GWEDF-NH2) | – | – | – | – | inactive | inactive | inactive | inactive | – |
| CCCC[C@H](NC(=O)[C@H](Cc1ccc(CS(=O)(=O)O)cc1)NC(=O)[C@H](CC(=O)O)NC(=O)COCCOCCNC(=O)[C@H](CCCCN)NC(=O)COCCOCCNC(=O)COCCOCCNC(=O)CC[C@H](NC(=O)CCCCCCCCCCCCCCCCC(=O)O)C(=O)O)C(=O)NCC(=O)N[C@@H](Cc1c[nH]c2ccccc12)C(=O)N[C@@H](CCCC)C(=O)N(C)[C@H](CC(=O)O)C(=O)N(C)[C@@H](Cc1ccccc1)C(N)=O ({C18 diacid-γGlu-AEEA-AEEA}-K[AEEA]D[Phe(4-CH2SO3H)][Nle]GW[Nle][dNMeD][NMeF]-NH2) | 0.9 | 1.2 | 1.6 | 1.8 | – | – | – | – | IC50 [1]: 0.0631 nM; IC50 [2]: 129 nM; EC50 [3]: 0.214 nM; concentration at 96 h [9]: 8.8 nM; Activity [10]: Non-Toxic |
| CCCC[C@H](NC(=O)[C@H](Cc1ccc(CS(=O)(=O)O)cc1)NC(=O)[C@H](CC(=O)O)NC(=O)COCCOCCNC(=O)COCCOCCNC(=O)CC[C@H](NC(=O)CCCCCCCCCCCCCCCCC(=O)O)C(=O)O)C(=O)NCC(=O)N[C@@H](Cc1c[nH]c2ccccc12)C(=O)N[C@@H](CCCC)C(=O)N(C)[C@H](CC(=O)O)C(=O)N(C)[C@@H](Cc1ccccc1)C(=O)O | – | – | – | – | inactive | inactive | inactive | inactive | – |
